Counter-ions that a name gives are not always drawn.
Experiments:
Dutch Belted rabbits [1] = format: in vivo; conditions: articaine 4%, 8%, or 12%, bilateral topical, two drops of 35 μL/eye, observed 24 hours
Protocol: Two subparts of one study were conducted on Dutch Belted rabbits, namely, an ocular tolerability study followed by an ocular biodistribution study.
(§1) In the ocular tolerability study, a total of twelve male Dutch Belted rabbits divided randomly into four groups, were administered a placebo of phosphate buffered saline (PBS) or articaine at 4%, 8%, or 12% respectively. […] Ophthalmic examinations were performed on dose tolerability animals (Groups 1 through 4) predose and at 5, 10, and 20 minutes, and at 1, 2, 4, and 24 hours post the second eye drop administration in each eye using the modified Hackett-McDonald Scoring System. Following the modified Hackett-McDonald Scoring, local anesthetic effect was monitored in each eye by Cochet-Bonnet esthesiometry predose and at approximately 5, 10, and 20 minutes, and 1 hour following administration of the second eye drop in each eye. […] Topical ocular administration of articaine provided an anesthetic effect out to 20 minutes postdose with no notable tolerability issues.

Dutch Belted rabbits [2] = assay: Local anesthetic effect by Cochet-Bonnet esthesiometry; format: in vivo; conditions: topical ocular administration, two drops of 35 μL/eye
Protocol: as §1

[3] = rabbit, in vivo
Protocol: (§2) In the ocular biodistribution study, after a minimum of 72 hours following the completion of the ocular tolerability study, the twelve rabbits were re-assigned to Group 5 for the ocular biodistribution study. Group 6 was added and consisted of 3 naïve rabbits. Group 6 was included to evaluate the potential carryover effect of articaine over a 72 hour period post treatment. Group 5 and 6 animals were administered articaine at 8% and 12% w/v, respectively. Doses were administered via bilateral topical administration (two drops of 35 μL/eye). Group 5 animals were sacrificed at 10 minutes, and 1, 4 and 8 hours post treatment (N=3 at each time point). Group 6 rabbits were sacrificed at 24, 48 and 72 hours post treatment (N=1 at each time point). Just prior to sacrifice blood samples were collected from each animal. Animals were then euthanized and aqueous humor, conjunctivas (palpebral and bulbar), lens, cornea, vitreous humor, iris-ciliary body [ICB], optic nerve, lacrimal gland, retina, and choroid were collected.
(§3) The objectives of this study were to determine the tolerability of placebo and Articaine HCl ophthalmic solutions at concentrations of 4, 8, and 12% (w/v) following topical eye drop administration, and to determine the ocular pharmacokinetics and biodistribution of articaine and articainic acid following topical eye drop administration of 8% Articaine HCl ophthalmic solution.

[4] = in vivo; cited from earlier work
in vivo = conditions: male, Dutch Belted, rabbit, topical or ocular
Protocol: as §2, §3

[5] = Ocular biodistribution / pharmacokinetics study
Protocol: as §2, §3

## CCCNC(C)C(=O)Nc1c(C)csc1C(=O)OC (centres unmarked) [articaine, 4-methyl-3 (2-[propylamino]proprioamido)-2-thiophenecarboxylic acid, methyl ester hydrochloride]
Dutch Belted rabbits [1]
  tolerability / treatment related adverse effects: well tolerated in all animals at concentrations up to 12% w/v
Dutch Belted rabbits [2]
  anesthetic effect, time postdose: 20 min
[3]
  systemic exposure, as indicated by plasma AUC: minimal
[4]
  excreted as the metabolites: 89%
  protein binding: highly protein bound
  renally excreted unchanged: Five to ten
In vivo
  Tmax: 10 min
In vivo; Plasma Cmax
  Cmax: 457 ng/mL

## Articainic acid
[5]; 12% articaine topical, 24, 48, and 72 hours postdose
  residual concentrations in ocular matrices: Low residual concentrations
[5]; all other matrices
  ratio of AUC0-last articainic acid over AUC0-last articaine: < 0.7
[5]; cornea
  ratio of AUC0-last articainic acid over AUC0-last articaine: approximately 2
[5]; plasma
  T1/2 (half-life): approximately 1.5 hours
  ratio of AUC0-last articainic acid over AUC0-last articaine: approximately 2
[5]; plasma, 8% articaine topical, two drops of 35 μL/eye
  Plasma Cmax: 217 ng/mL

Source: US11826347B2, “Anesthetic composition and method of anesthetizing the eye” (priority 2018, dated 2023)
